Experimental data taken from patent publication US20260325485A1, “COMPOSITIONS AND METHODS FOR TREATING PANCREATITIS” (The United States Government as represented by the …, priority 2022, published 2026).

Key:
pancreas = experiment: Drug treatment of Gnptab−/− mice: pancreatic total cholesterol; format: in vivo, mouse
Protocol: 12-week-old Gnptab−/− mice were subjected to daily i.p. injections of 20 mg/kg simvastatin or the same dose of T0901317 for 4 or 21 days.
(§1) Total cholesterol content was measured with Cholesterol Assay kit per manufacturer's instructions. Samples of mouse pancreas and liver, cell pellet homogenates, subcellular fractions, isolated mitochondria, and serum were diluted in the reaction buffer containing cholesterol probe and incubated at 37° C. for 1 h in the dark. To measure total cholesterol, the samples were subjected to digestion with cholesterol esterase. To measure non-esterified cholesterol, the esterase was omitted from the assay.

[1] = test system: mouse pancreatic acinar cells; experiment: Ex-vivo CCK-AP in mouse pancreatic acinar cells treated with simvastatin or MCD; format: cell-based; conditions: simvastatin 4 μM, 3 h or MCD 10 mM, 1 h
Protocol: FIGS. 26A-26D preventing cholesterol overload ameliorates ex-vivo pancreatitis. Mouse pancreatic acinar cells were incubated (A, B) with simvastatin (4 μM, 3 h) or (C, D) cholesterol chelator, methyl-β-cyclodextrin (MCD; 10 mM, 1 h) and then subjected to CCK-AP for 1 (D) or 3 h (A, B). Cholesterol content (A, C) necrosis (B), and trypsin activity (D) were measured. Each symbol represents an individual cell preparation. Values are mean±SEM*p<0/05, **p<0.01 vs control; #p<0.05 ##p<0.01; vs CCK, no inhibitor.
Ex vivo pancreatitis models were performed on mouse and human acinar cells, and human pancreas slices by incubation with supramaximal CCK (100 nM) or carbachol (1 mM), as described previously (80, 81).
Activities of cathepsin (Cat) B and L, caspase-3, trypsin, and lysosomal acid lipase (LAL) were measured in pancreatic tissue or cell homogenates and subcellular fractions with fluorogenic assays using substrates specific for CatB (Z-Arg-Arg-AMC), CatL (Z-Phe-Arg-AMC), caspase-3-like ([…]), trypsin (Boc-Gln-Ala-Arg-AMC), as previously described (1-4, 6, 7); and for LAL (4-methylumbelliferyl oleate), as in (17). In measurements of CatL activity, the assay buffer also contained 50 μM CA-074me, a CatB inhibitor. LAL activity was measured in the absence and presence of the LAL inhibitor lalistat (100 μM) as the difference between these values (17).
as §1

## CCC(C)(C)C(=O)O[C@H]1C[C@@H](C)C=C2C=C[C@H](C)[C@H](CC[C@@H]3C[C@@H](O)CC(=O)O3)[C@H]21 [simvastatin]
pancreas; 20 mg/kg i.p. daily for 4 or 21 days
  total cholesterol content in pancreas, Gnptab−/− mice: Neither treatment changed
pancreas; even for 3 weeks
  pancreatic total cholesterol, Gnptab−/− mice: failed to decrease
[1]
  cholesterol overload in ex-vivo CCK-AP: Reducing
  extent of necrosis in ex-vivo CCK-AP: greatly decreased
  trypsinogen activation in ex-vivo CCK-AP: greatly decreased
